Measured values taken from patent US10730885B1, “Coumarin derivatives” (KING SAUD UNIVERSITY, priority 2019, dated 2020).
≈ marks a conversion by molar mass, not a printed value. Entries after “also recorded” stand apart in the source; their conditions may differ. Read-outs that look alike come from different tables or passages of the source.

Columns and labels:
[1] = test system: formaldehyde-induced paw oedema; experiment: Formaldehyde-induced rat paw oedema; type: in vivo; conditions: 2.5 mg/kg orally
Description: Testing was performed to determine formaldehyde-induced rat paw oedema (edema). For the formaldehyde-induced rat paw oedema (edema) test, female Wister albino rats (150-175 g) were used for determination of the anti-inflammatory activities. The rats were obtained from the animal house colony of the National Organization for Drug Control and Research (NODCAR), Egypt. The animals were kept in standard plastic cages in an air conditioned room at 22±3° C., 55±5% humidity and supplied with standard laboratory diet and water ad libitum. All animal experimental procedures were carried out according to the Ethics Committee of the National Research Centre, Cairo, Egypt and followed the guidelines of the National Institutes of Health, Guide for Care and Use of Laboratory Animals (1985).
The percentage protection against inflammation was calculated by using following formula:
[formula] where Vc is the mean percentage increase in paw volume in the control and Vd is the mean percentage increase in paw volume after injection of the test compound. Values were expressed as mean±standard error (S.E.). Comparisons between mean values were carried out using two-way analysis of variance (ANOVA), followed by Tukey Kramer multiple comparisons test for all acute toxicity study tests. […] was considered significant. Graph pad prism software (version 6) was used to carry out all statistical tests.

[2] = test system: Candida albicans NRRL Y-477; experiment: Agar well diffusion, primary antimicrobial screening; type: cell-based; conditions: for zone of inhibition at 10000 µg/mL: Candida albicans, NRRLY477, C. albicans NRRL Y-477, 100 μL of 10 mg/ml in DMSO, 24 h, read-out: Inhibition Diameter Zone CA; for antifungal activity compared with reference drug: C. albicans
Source text: (§1) The newly synthesized compounds were individually tested for their in vitro antimicrobial activity against the standard bacteria strains of American Type Culture Collection (ATCC), namely, Staphylococcus aureus ATCC 29213, Bacillus subtilis ATCC 6633, Bacillus megaterium ATCC 9885 (Gram-positive), Escherichia coli ATCC 2592 and Pseudomonas aeruginosa ATCC 27953 (Gram-negative). In addition, they were microbiologically tested against the locally isolated Saccharomyces cerevisiae (yeast) and the standard strain of Agricultural Research Service Culture Collection (NRRL) of the yeast like pathogenic fungus Candida albicans NRRL Y-477. The primary screening was carried out using the agar well diffusion method using nutrient agar (NA) medium and Sabourand dextrose agar (SDA) medium for pathological tested bacteria and yeast, respectively.
(§2) Antimicrobial tests were carried out by the agar well diffusion method using 100 μL of suspension containing 1×10^8 CFU/mL of pathological tested bacteria and 1×10^6 CFU/ml of yeast spread on NA and SDA, respectively. After the media was cooled and solidified, wells (10 mm in diameter) were made in the solidified agar and loaded with 100 μL of tested compound solution prepared by dissolving 10 mg of the chemical compound in one ml of dimethyl sulfoxide (DMSO). The inculcated plates were then incubated for 24 h at 37° C. for bacteria and yeast. Negative controls were prepared using DMSO employed for dissolving the tested compound. Ciprofloxacin (10 mg/ml) and ketoconazole (10 mg/ml) were used as standard for antibacterial and antifungal activity, respectively. After incubation time, antimicrobial activity was evaluated by measuring the zone of inhibition against the test organisms and compared with that of the standard. Antimicrobial activities were expressed as inhibition diameter zones in millimeters (mm). The experiment was carried out in triplicate and the average zone of inhibition was calculated.

[3] = test system: Staphylococcus aureus ATCC 29213; experiment: as above; type: cell-based; conditions: for zone of inhibition at 10000 µg/mL: Staphylococcus aureus, ATCC29213, S. aureus ATCC 29213, 100 μL of 10 mg/ml in DMSO, 24 h, read-out: Inhibition Diameter Zone SA; for antibacterial activity compared with ciprofloxacin: S. aureus
Source text: as §1, §2

[4] = test system: Saccharomyces cerevisiae (local isolate); experiment: as above; type: cell-based; conditions: for zone of inhibition at 10000 µg/mL: Saccharomyces cerevisiae, 24 h, read-out: Inhibition Diameter Zone SC; for antimicrobial activity compared with ketoconazole: S. cerevisiae
Source text: as §1, §2

trypsin = experiment: Proteinase inhibitory activity (trypsin/casein); type: biochemical; conditions: for % Inhibition of proteinase activity: 250 μg/ml, mean ± SD (n = 3)
Description: For proteinase inhibitory activity, the reaction mixture (2 ml) contained 0.06 mg trypsin, 20 mM Tris HCl buffer (pH 7.4) and 1 ml test sample (250 μg/ml for each compound). The mixture was incubated for 5 min and then 1 ml of 0.8% (w/v) casein was added. The mixture was incubated for an additional 20 min. 1 ml of 10% perchloric acid was added to arrest the reaction. The cloudy suspension was centrifuged, and the absorbance of the supernatant was read at 280 nm. Reference standard compound aspirin was used as the positive control for this assay. The experiment was performed in triplicate. Percentage inhibition of […] was calculated by using the following formula:
[formula] where Acontrol is the absorbance of the control reaction and Atest is the absorbance of the control reaction with sample.

[5] = DPPH microplate radical scavenging antioxidant assay; type: biochemical; conditions: for IC50: DPPH, 30 min, mean ± SD (n = 3)
Description: The antioxidant activity of the synthesized compounds was measured in terms of hydrogen-donating or radical scavenging ability using the DPPH microplate-based method. Absorbance measurement was obtained using Microplate/cuvette reader (Spectramax M5, Molecular Devices, California, USA). Reference standard compound ascorbic acid was used as the positive control for this assay at concentrations ranging from 1.563 to 200 μg/mL. Test samples were prepared at a starting concentration of 200 μg/mL after mixing with 100 μl of 0.2 mM DPPH methanolic solution. A series of concentrations were tested for the samples in order to determine the 50% inhibitory concentration (IC50). Samples were incubated with DPPH in the dark for 30 min at room temperature (25° C.). The DPPH solution in methanol was prepared daily and stored in a flask covered with aluminum foil. DPPH radicals have an absorption maximum (λmax) at 515 nm, in which the absorbance values were measured and converted into percentage of antioxidant activity.
Methanolic DPPH solution without antioxidant was applied as control and background control was samples in methanol only. IC50 was determined using Graphpad Prism 7 (Graphpad Software Inc. CA, USA). The percentage inhibition was calculated by using the formula:
The assay was carried out in triplicate and performed as much as possible in an area protected against light. The data points are presented as the mean±standard deviation (SD) (n=3).

tested microorganisms = experiment: Agar well diffusion, summary over the tested microorganisms; type: cell-based; conditions: for antimicrobial activity compared with standard antimicrobials (ciprofloxacin and ketoconazole): against one or more microorganisms
Source text: as §1, §2

[6] = test system: Pseudomonas aeruginosa ATCC 27953; experiment: Agar well diffusion, primary antimicrobial screening; type: cell-based; conditions: for zone of inhibition at 10000 µg/mL: Pseudomonas aeruginosa, ATCC27953, P. aeruginosa ATCC 27953, 100 μL of 10 mg/ml in DMSO, 24 h, read-out: Inhibition Diameter Zone PA
Source text: as §1, §2

[7] = test system: Escherichia coli ATCC 2592; experiment: as above; type: cell-based; conditions: for zone of inhibition at 10000 µg/mL: Escherichia coli, ATCC2592, E. coli ATCC 2592, 100 μL of 10 mg/ml in DMSO, 24 h, read-out: Inhibition Diameter Zone EC
Source text: as §1, §2

[8] = test system: Bacillus megaterium ATCC 9885; experiment: as above; type: cell-based
Source text: as §1, §2

[9] = test system: Bacillus subtilis ATCC 6633; experiment: as above; type: cell-based; conditions: for antibacterial activity compared with reference drug: B. subtilis
Source text: as §1, §2

[10] = S. cerevisiae local isolate, 100 μL of 10 mg/ml in DMSO

Row | Structure (SMILES) | melting point [°C] | in vivo anti-inflammatory activity [1] | zone of inhibition at 10000 µg/mL [2] [mm] | zone of inhibition at 10000 µg/mL [3] [mm] | in vitro anti-proteinase activity compared with aspirin (trypsin) | % Inhibition of proteinase activity (trypsin) [%] | IC50 [5] | zone of inhibition at 10000 µg/mL [6] [mm] | zone of inhibition at 10000 µg/mL [7] [mm] | zone of inhibition at 10000 µg/mL [4, 10] [mm] | antimicrobial activity compared with standard antimicrobials (ciprofloxacin and ketoconazole) (tested microorganisms) | antibacterial activity compared with reference drug [9] | antibacterial activity compared with ciprofloxacin [3] | antimicrobial activity compared with ketoconazole [4] | antifungal activity compared with reference drug [2] | also measured
1 | Cc1ccc2oc(=O)c3c(c2c1)OC(N)=C(C(N)=O)C3c1ccc([N+](=O)[O-])cc1 (racemic) [Compound 6a, (±)-2-amino-9-methyl-4-(4-nitrophenyl)-5-oxo-4H, 5H-pyrano[3,2-c]chromene-3-carboxamide] | 142 to 144 | significant in vivo anti-inflammatory activity; also recorded: significant protection against inflammation | < 15 | < 15 | more potent | 79.72±4.51 | — ((—): inactive (IC50 > 200 μg/mL)) | – | – | – | – | – | – | – | – | zone of inhibition at 10000 µg/mL [4]: < 15 mm
2 | Cc1ccc2oc(=O)c(S(=O)(=O)Nc3ccc(S(N)(=O)=O)cc3)c(O)c2c1 [Compound 10b, 4-Hydroxy-6-methyl-2-oxo-N-(4-sulfamoylphenyl)-2H-chromene-3-sulfonamide] | 241 to 243 | – | < 15 | < 15 | – | 5.93 ± 2.11 | 61.78 ± 2.719 µg/mL (≈ 151 µM) | < 15 | < 15 | < 15 | – | – | – | – | – | growth inhibition zones (tested microorganisms; against one or more of the tested microorganisms): < 15 mm; zone of inhibition at 10000 µg/mL ([8]; Priestia megaterium, ATCC9885, B. megaterium ATCC 9885, 100 μL of 10 mg/ml in DMSO, 24 h, read-out: Inhibition Diameter Zone BM): < 15 mm; zone of inhibition at 10000 µg/mL ([9]; Bacillus subtilis, ATCC6633, B. subtilis ATCC 6633, 100 μL of 10 mg/ml in DMSO, 24 h, read-out: Inhibition Diameter Zone BS): < 15 mm
3 | Cc1ccc2oc(=O)c(S(=O)(=O)Nc3ccc(S(=O)(=O)Nc4nccs4)cc3)c(O)c2c1 [Compound 10f, 4-hydroxy-6-methyl-2-oxo-N-(4-(N-(thiazol-2-yl)sulfamoyl)phenyl)-2H-chromene-3-sulfonamide] | 167 to 169 | significant protection against inflammation | – | – | as potent | 43.88 ± 5.6 | 83.52 ± 1.849 µg/mL (≈ 169 µM) | – | – | – | – | – | – | – | – | –
4 | O=c1oc2ccc(Cl)cc2c(O)c1S(=O)(=O)Nc1ccc(O)cc1 [Compound 11c, 6-Chloro-4-hydroxy-N-(4-hydroxyphenyl)-2-oxo-2H-chromene-3-sulfonamide] | 250 to 251 | significant protection against inflammation | – | – | as potent | – | 3.87 ± 0.409 µg/mL (≈ 10.5 µM) | – | – | 32 | equal to or higher than the standard antimicrobials | comparable antibacterial activities to the standard | higher than the control ciprofloxacin | higher than that of the corresponding control drug | – | antioxidant activity ([5]; overview): particularly high antioxidant activity
5 | CC(=O)c1ccc(NS(=O)(=O)c2c(O)c3cc(Cl)ccc3oc2=O)cc1 [Compound 11e, N-(4-acetylphenyl)-6-chloro-4-hydroxy-2-oxo-2H-chromene-3-sulfonamide] | 238 to 240 | – | < 15 | < 15 | – | – | 32.85 ± 1.322 µg/mL (≈ 83.4 µM) | < 15 | < 15 | < 15 | – | – | – | – | higher antifungal activity | % inhibition of rat paw oedema ([1]; one hour after induction of inflammation): 9.45%
6 | O=C(/C=C/c1ccc(Cl)cc1)c1ccc(NS(=O)(=O)c2c(O)c3cc(Cl)ccc3oc2=O)cc1 [Compound 12c, (E)-6-chloro-N-(4-(3-(4-chlorophenyl)acryloyl)phenyl)-4-hydroxy-2-oxo-2H-chromene-3-sulfonamide] | 157 to 159 | – | – | – | – | 17.6 ± 6.86 | — ((—): inactive (IC50 > 200 μg/mL)) | – | – | 31 | equal to or higher than the standard antimicrobials | comparable antibacterial activities to the standard | equal to ciprofloxacin | higher than that of the corresponding control drug | higher antifungal activity | antibacterial activity compared with standard ([6]; P. aeruginosa): comparable antibacterial activity to the standard; antibacterial activity compared with ciprofloxacin ([7]; E. coli): comparable antibacterial potential; antibacterial activity compared with ciprofloxacin ([8]; B. megaterium): comparable to ciprofloxacin
